In ChEMBL document CHEMBL2396558, “Orthogonal chemistry for the synthesis of thiocoraline-triostin hybrids. Exploring their structure-activity relationship” (2013):
Positions of bridges follow the written chain, without caps; N, C: chain ends. Non-standard residues stand in square brackets, D forms with d. Residues, ends and D or L forms follow the SMILES beside them. Chains are numbered I, II in the order given. *: point of attachment. Quinoxaline2carbonyl = O=C(c1cnc2ccccc2n1)*; NMeV = CN[C@H](C(=O)O)C(C)C; NMeC = CN[C@@H](CS)C(=O)O

Tests used:
Type in all cases: functional
MDA-MB-231 = test: Cytotoxicity against human MDA-MB-231 cells after 72 hrs by sulforhodamine B assay; conditions: MDA-MB-231, 72 h
A549 = test: Cytotoxicity against human A549 cells after 72 hrs by sulforhodamine B assay; conditions: A549, 72 h; for CC50: read-out: LC50 (the source's name)
HT-29 = test: Cytotoxicity against human HT-29 cells after 72 hrs by sulforhodamine B assay; conditions: HT-29, 72 h; for CC50: read-out: LC50 (the source's name)

Structure (SMILES)	GI50 (MDA-MB-231)	LC50 (concentration killing 50% of cells) (MDA-MB-231)	TGI (MDA-MB-231)	GI50 (A549)	TGI (A549)	CC50 (A549)	GI50 (HT-29)	TGI (HT-29)	CC50 (HT-29)
CSC[C@H]1C(=O)N(C)C[C@@H](NC(=O)c2cnc3ccccc3n2)C(=O)NCC(=O)N(C)[C@H]2CSSC[C@@H](C(=O)N1C)N(C)C(=O)CNC(=O)[C@H](NC(=O)c1cnc3ccccc3n1)CN(C)C(=O)[C@H](CSC)N(C)C2=O	0.0473 µM	> 8.92 µM	1.43 µM	0.0713 µM	> 8.92 µM	> 8.92 µM	0.357 µM	> 8.92 µM	> 8.92 µM
CC(C)[C@H]1C(=O)N(C)C[C@@H](NC(=O)c2cnc3ccccc3n2)C(=O)N[C@@H](C)C(=O)N(C)[C@H]2CSSC[C@@H](C(=O)N1C)N(C)C(=O)[C@H](C)NC(=O)[C@H](NC(=O)c1cnc3ccccc3n1)CN(C)C(=O)[C@H](C(C)C)N(C)C2=O	5.93 µM	> 8.98 µM	> 8.98 µM	> 8.98 µM	> 8.98 µM	> 8.98 µM	8.44 µM	> 8.98 µM	> 8.98 µM
CSC[C@H]1C(=O)N(C)C[C@@H](NC(=O)c2nc3ccccc3cc2O)C(=O)NCC(=O)N(C)[C@H]2CSSC[C@@H](C(=O)N1C)N(C)C(=O)CNC(=O)[C@H](NC(=O)c1nc3ccccc3cc1O)CN(C)C(=O)[C@H](CSC)N(C)C2=O	0.00408 µM	0.373 µM	0.0426 µM	0.00339 µM	0.02 µM	0.165 µM			0.747 µM
CC(C)[C@H]1C(=O)OC[C@@H](NC(=O)c2nc3ccccc3cc2O)C(=O)N[C@@H](C)C(=O)N(C)[C@H]2CSSC[C@@H](C(=O)N1C)N(C)C(=O)[C@H](C)NC(=O)[C@H](NC(=O)c1nc3ccccc3cc1O)COC(=O)[C@H](C(C)C)N(C)C2=O	> 8.92 µM	> 8.92 µM	> 8.92 µM	> 8.92 µM	> 8.92 µM	> 8.92 µM	> 8.92 µM	> 8.92 µM	> 8.92 µM
CSC[C@H]1C(=O)OC[C@@H](NC(=O)c2nc3ccccc3cc2O)C(=O)NCC(=O)N(C)[C@H]2CSSC[C@@H](C(=O)N1C)N(C)C(=O)CNC(=O)[C@H](NC(=O)c1nc3ccccc3cc1O)COC(=O)[C@H](CSC)N(C)C2=O	0.462 µM	6.4 µM	2.75 µM	0.311 µM	2.75 µM	7.91 µM	0.4 µM	3.55 µM	7.55 µM
CN1C[C@@H](NC(=O)c2nc3ccccc3cc2O)C(=O)NCC(=O)N(C)[C@H]2CSSC[C@@H](C(=O)N(C)[C@@H](CN)C1=O)N(C)C(=O)CNC(=O)[C@H](NC(=O)c1nc3ccccc3cc1O)CN(C)C(=O)[C@H](CN)N(C)C2=O	8.95 µM	8.95 µM	8.95 µM	8.95 µM	8.95 µM	8.95 µM	8.95 µM	8.95 µM	8.95 µM
CN1C[C@@H](NC(=O)c2nc3ccccc3cc2O)C(=O)NCC(=O)N(C)[C@H]2CSSC[C@@H](C(=O)N(C)[C@@H](CCN)C1=O)N(C)C(=O)CNC(=O)[C@H](NC(=O)c1nc3ccccc3cc1O)CN(C)C(=O)[C@H](CCN)N(C)C2=O	8.95 µM	8.95 µM	8.95 µM	8.95 µM	8.95 µM	8.95 µM	8.95 µM	8.95 µM	8.95 µM
COCCOCCOCC(=O)NC[C@H]1C(=O)N(C)C[C@@H](NC(=O)c2nc3ccccc3cc2O)C(=O)NCC(=O)N(C)[C@H]2CSSC[C@@H](C(=O)N1C)N(C)C(=O)CNC(=O)[C@H](NC(=O)c1nc3ccccc3cc1O)CN(C)C(=O)[C@H](CNC(=O)COCCOCCOC)N(C)C2=O	> 7.09 µM	> 7.09 µM	> 7.09 µM	> 7.09 µM	> 7.09 µM	> 7.09 µM	> 7.09 µM	> 7.09 µM	> 7.09 µM
COCCOCCOCC(=O)NCC[C@H]1C(=O)N(C)C[C@@H](NC(=O)c2nc3ccccc3cc2O)C(=O)NCC(=O)N(C)[C@H]2CSSC[C@@H](C(=O)N1C)N(C)C(=O)CNC(=O)[C@H](NC(=O)c1nc3ccccc3cc1O)CN(C)C(=O)[C@H](CCNC(=O)COCCOCCOC)N(C)C2=O	> 6.96 µM	> 6.96 µM	> 6.96 µM	> 6.96 µM	> 6.96 µM	> 6.96 µM	> 6.96 µM	> 6.96 µM	> 6.96 µM
CSC[C@H]1C(=O)SC[C@@H](NC(=O)c2nc3ccccc3cc2O)C(=O)NCC(=O)N(C)[C@H]2SSC[C@@H](C(=O)N1C)N(C)C(=O)CNC(=O)[C@H](NC(=O)c1nc3ccccc3cc1O)CSC(=O)[C@H](CSC)N(C)C2=O [THIOCORALINE]	0.00207 µM	0.0346 µM	0.0095 µM	0.00622 µM	0.0242 µM	0.095 µM			0.138 µM
CC(C)[C@H]1C(=O)OC[C@@H](NC(=O)c2cnc3ccccc3n2)C(=O)N[C@@H](C)C(=O)N(C)[C@H]2CSSC[C@@H](C(=O)N1C)N(C)C(=O)[C@H](C)NC(=O)[C@H](NC(=O)c1cnc3ccccc3n1)COC(=O)[C@H](C(C)C)N(C)C2=O [TRIOSTIN] (I: Quinoxaline2carbonyl-[dS]A[NMeC][NMeV] / II: Quinoxaline2carbonyl-[dS]A[NMeC][NMeV]; ester I:1-II:C, I:C-II:1; disulfide I:3-II:3)	0.202 µM	1.56 µM	0.515 µM	0.34 µM	1.66 µM	> 9.2 µM	0.23 µM	2.85 µM	> 9.2 µM
